# Several values for one entry are separate records, joined by “and”; a condition that tells them apart may be missing. Equal entries are not always repeated. Structures can show the parent of a compound that is named as a salt. Where two headings read alike, the source gives them in different places.
# Legend:
# [1] = tested on: parathyroid cancer patients; experiment: PTH levels and ratio in parathyroid cancer patients receiving Cinacalcet HCl (Table 2); type: in vivo, human; details: SCR or D1 visit: prior to Cinacalcet HCl treatment (baseline); hydrochloride
# Text: See M. R. Rubin, et al., “A Molecular Form of PTH Distinct From PTH (1-84) is Produced in Parathyroid Carcinoma” (J. Bone & Mineral Metab., forthcoming).
# [2] = tested on: ESRD subjects; experiment: Study of ESRD subjects treated with Cinacalcet and HECTOROL (Table 3); type: in vivo, human; details: unlabelled summary line over patients 1-11
# Text: Table 3 provides the results of a study of several ESRD subjects treated with Cinacalcet and HECTOROL™ (Doxercalciferol synthetic Vitamin D). Pre and post treatment levels of total PTH, 1-84 PTH, 7-84 PTH, calcium, phosphate and alkaline phosphatase are provided together with the pre and post treatment ratio of 1-84 PTH/7-84 PTH and the pre and post treatment product of (calcium) x (phosphate).
# [3] = tested on: chronic kidney disease patients on dialysis; details: product insert; cited from earlier work
# [4] = tested on: 1-84 PTH/7-84 PTH ratio; details: cited from earlier work
structure (smiles),measurement,setting,value
C[C@@H](NCCCc1cccc(C(F)(F)F)c1)c1cccc2ccccc12 [Cinacalcet HCl],CPTH/TPTH,[1],1.5 and 1.6
same,Post CIP (7-84 PTH),[2]; post treatment,342.2
same,Post Ca,[2]; post treatment,8.7
same,Post Phos,[2]; post treatment,5.6
same,Post alk phos,[2]; post treatment,240.5
same,Post-CAP (1-84 PTH),[2]; post treatment,458.3
same,Post-Total (total PTH),[2]; post treatment,800.4
same,Prot Ca xP,[2]; post treatment,49.2
same,Pre Ca,[2]; pre treatment,9.5
same,Pre Ca xP,[2]; pre treatment,55.7
same,Pre Phos,[2]; pre treatment,5.9
same,Pre alk phos,[2]; pre treatment,220.2
same,Pre-CAP (1-84 PTH),[2]; pre treatment,508.8
same,Pre-CIP (7-84 PTH),[2]; pre treatment,355.3
same,Pre-Total (total PTH),[2]; pre treatment,864.0
same,risk for developing adynamic bone disease,[3],carries a risk for developing adynamic bone disease
"C=C1/C(=C\C=C2/CCC[C@]3(C)[C@@H]([C@H](C)/C=C/[C@H](C)C(C)C)CC[C@@H]23)C[C@@H](O)C[C@@H]1O [Hectarale, Doxercalciferol]",Ca,"[4]; 2.5 μgm/dose, Nov. 1 2001 (Ca Nov. 8)",8.1 mg/dL
same,PO4,"[4]; 2.5 μgm/dose, Nov. 1 2001 (PO4 Nov.5-7)",5.7 mg/dL
same,CAP,"[4]; 2.5 μgm/dose, Nov. 1 2001",1462 pgm/mL
same,CAP/CIP,"[4]; 2.5 μgm/dose, Nov. 1 2001",6.74
same,CIP,"[4]; 2.5 μgm/dose, Nov. 1 2001",217 pgm/mL
same,Ca × PO4,"[4]; 2.5 μgm/dose, Nov. 1 2001",46
same,Intact PTH,"[4]; 2.5 μgm/dose, Nov. 1 2001",1679 pgm/mL
same,Ca,"[4]; 4 μgm/dose, Aug. 17 2001 (Ca Sept. 21)",8.3 mg/dL
same,PO4,"[4]; 4 μgm/dose, Aug. 17 2001 (PO4 Sept. 21)",7.0 mg/dL
same,CAP,"[4]; 4 μgm/dose, Aug. 17 2001",1735 pgm/mL
same,CAP/CIP,"[4]; 4 μgm/dose, Aug. 17 2001",0.95
same,CIP,"[4]; 4 μgm/dose, Aug. 17 2001",1824 pgm/mL
same,Ca × PO4,"[4]; 4 μgm/dose, Aug. 17 2001",58
same,Intact PTH,"[4]; 4 μgm/dose, Aug. 17 2001",3559 pgm/mL

# Source: patent US20050288377A1, “Use of calcimimetic as an adynamic bone disease related treatment” (priority 2004, published 2005)
